According to ChEMBL document CHEMBL1201862, “PubChem BioAssay data set” (2004):
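Where inhibition never reached the appropriate level, the endpoint shown equals the highest concentration tested. Otherwise, values were interpolated linearly from a five-concentration, 48-hour dose response in 96-well plates. GI50 marks 50% less growth.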 Calls of active or inactive are those of the source. Rule as the data show it: active = GI50 up to about 1.1 µM and inactive = higher.

Columns and labels:
Test in all cases: NCI-60 cell line screen, 48 h
786-0 = system: 786-0
A549 = system: A549
ACHN = system: ACHN
BT-549 = system: BT-549
CAKI-1 = system: CAKI-1
CCRF-CEM = system: CCRF-CEM
COLO 205 = system: COLO 205
DU-145 = system: DU-145
EKVX = system: EKVX
HCC 2998 = system: HCC 2998
HCT-116 = system: HCT-116
HCT-15 = system: HCT-15
HL-60 = system: HL-60
HOP-62 = system: HOP-62
HOP-92 = system: HOP-92
HT-29 = system: HT-29
Hs-578T = system: Hs-578T
IGROV-1 = system: IGROV-1
K562 = system: K562
KM12 = system: KM12
LOX IMVI = system: LOX IMVI
M14 = system: M14
MCF7 = system: MCF7
MDA-MB-231 = system: MDA-MB-231
MDA-MB-435 = system: MDA-MB-435
MDA-N = system: MDA-N
MOLT-4 = system: MOLT-4
Malme-3M = system: Malme-3M
NCI-H226 = system: NCI-H226
NCI-H23 = system: NCI-H23
NCI-H460 = system: NCI-H460
NCI-H522 = system: NCI-H522
NCI/ADR-RES = system: NCI/ADR-RES
OVCAR-3 = system: OVCAR-3
OVCAR-4 = system: OVCAR-4
OVCAR-8 = system: OVCAR-8
PC-3 = system: PC-3
RPMI-8226 = system: RPMI-8226
RXF 393 = system: RXF 393
SF-268 = system: SF-268
SF-295 = system: SF-295
SF-539 = system: SF-539
SK-MEL-28 = system: SK-MEL-28
SK-MEL-2 = system: SK-MEL-2
SK-MEL-5 = system: SK-MEL-5
SK-OV-3 = system: SK-OV-3
SN12C = system: SN12C
SNB-19 = system: SNB-19
SNB-75 = system: SNB-75
SW-620 = system: SW-620
T47D = system: T47D
TK-10 = system: TK-10
U-251 = system: U-251
UACC-257 = system: UACC-257
UACC-62 = system: UACC-62
UO-31 = system: UO-31
A498 = system: A498
OVCAR-5 = system: OVCAR-5
SR = system: SR

With `Cc1c(-c2nc3ccccc3[nH]2)c(=O)n(-c2ccccc2)n1C` the GI50 (786-0) was > 100 µM (inactive), the GI50 (A549) was > 100 µM (inactive) and the GI50 (ACHN) was > 100 µM (inactive). For the same compound, the GI50 (BT-549) was > 100 µM (inactive), the GI50 (CAKI-1) was > 100 µM (inactive) and the GI50 (CCRF-CEM) was > 100 µM (inactive). The GI50 (COLO 205) was > 100 µM (inactive), the GI50 (DU-145) was > 100 µM (inactive) and the GI50 (EKVX) was > 100 µM (inactive). The GI50 (HCC 2998) was > 100 µM (inactive), the GI50 (HCT-116) was > 100 µM (inactive) and the GI50 (HCT-15) was > 100 µM. For the same compound, the GI50 (HL-60) was > 100 µM (inactive), the GI50 (HOP-62) was > 100 µM (inactive) and the GI50 (HOP-92) was > 100 µM (inactive). The GI50 (HT-29) was > 100 µM (inactive), the GI50 (Hs-578T) was > 100 µM (inactive) and the GI50 (IGROV-1) was > 100 µM (inactive). The GI50 (K562) was > 100 µM (inactive), the GI50 (KM12) was > 100 µM (inactive) and the GI50 (LOX IMVI) was > 100 µM (inactive). For the same compound, the GI50 (M14) was > 100 µM (inactive), the GI50 (MCF7) was > 100 µM (inactive) and the GI50 (MDA-MB-231) was > 100 µM (inactive). The GI50 (MDA-MB-435) was > 100 µM (inactive), the GI50 (MDA-N) was > 100 µM (inactive) and the GI50 (MOLT-4) was > 100 µM (inactive). The GI50 (Malme-3M) was > 100 µM (inactive), the GI50 (NCI-H226) was > 100 µM (inactive) and the GI50 (NCI-H23) was > 100 µM (inactive). For the same compound, the GI50 (NCI-H460) was > 100 µM (inactive), the GI50 (NCI-H522) was > 100 µM (inactive) and the GI50 (NCI/ADR-RES) was > 100 µM (inactive). For the same compound, the GI50 (OVCAR-3) was > 100 µM (inactive), the GI50 (OVCAR-4) was > 100 µM (inactive) and the GI50 (OVCAR-8) was > 100 µM (inactive). For the same compound, the GI50 (PC-3) was > 100 µM (inactive), the GI50 (RPMI-8226) was > 100 µM (inactive) and the GI50 (RXF 393) was > 100 µM (inactive). For the same compound, the GI50 (SF-268) was > 100 µM (inactive), the GI50 (SF-295) was > 100 µM (inactive) and the GI50 (SF-539) was > 100 µM (inactive). The GI50 (SK-MEL-28) was > 100 µM (inactive), the GI50 (SK-MEL-2) was > 100 µM (inactive) and the GI50 (SK-MEL-5) was > 100 µM (inactive). The GI50 (SK-OV-3) was > 100 µM (inactive), the GI50 (SN12C) was > 100 µM (inactive) and the GI50 (SNB-19) was > 100 µM (inactive). The GI50 (SNB-75) was > 100 µM (inactive), the GI50 (SW-620) was > 100 µM (inactive) and the GI50 (T47D) was > 100 µM (inactive). The GI50 (TK-10) was > 100 µM (inactive), the GI50 (U-251) was > 100 µM (inactive) and the GI50 (UACC-257) was > 100 µM (inactive). For the same compound, the GI50 (UACC-62) was > 100 µM (inactive) and the GI50 (UO-31) was > 100 µM (inactive).

In the case of `COc1ccc(/N=N/N2CCCC2)cc1`, the GI50 (786-0) is reported as 15.6 µM (inactive), the GI50 (A498) is reported as > 100 µM (inactive) and the GI50 (A549) is reported as > 100 µM (inactive). For the same compound, the GI50 (ACHN) was 15.5 µM (inactive), the GI50 (BT-549) was 23.2 µM (inactive) and the GI50 (CAKI-1) was 16.2 µM (inactive). The GI50 (CCRF-CEM) was 16.7 µM (inactive), the GI50 (COLO 205) was 17.9 µM (inactive) and the GI50 (DU-145) was > 100 µM (inactive). The GI50 (EKVX) was 19.7 µM (inactive), the GI50 (HCC 2998) was 45.6 µM (inactive) and the GI50 (HCT-116) was 20.1 µM (inactive). For the same compound, the GI50 (HCT-15) was 22.6 µM, the GI50 (HL-60) was 30.1 µM (inactive) and the GI50 (HOP-62) was > 100 µM (inactive). For the same compound, the GI50 (HOP-92) was 21.7 µM (inactive), the GI50 (HT-29) was 40.2 µM (inactive) and the GI50 (Hs-578T) was 54.5 µM (inactive). The GI50 (IGROV-1) was 14.9 µM (inactive), the GI50 (K562) was 31.4 µM (inactive) and the GI50 (KM12) was 0.305 µM (active). The GI50 (LOX IMVI) was 16.1 µM (inactive), the GI50 (M14) was 44.8 µM (inactive) and the GI50 (MCF7) was 30.8 µM (inactive). The GI50 (MDA-MB-231) was 20.5 µM (inactive), the GI50 (MDA-MB-435) was 70.6 µM (inactive) and the GI50 (MDA-N) was 16.9 µM (inactive). For the same compound, the GI50 (MOLT-4) was 26.9 µM (inactive), the GI50 (Malme-3M) was 17.6 µM (inactive) and the GI50 (NCI-H226) was > 100 µM (inactive). For the same compound, the GI50 (NCI-H23) was 61.7 µM (inactive), the GI50 (NCI-H460) was > 100 µM (inactive) and the GI50 (NCI-H522) was 12.9 µM (inactive). The GI50 (OVCAR-3) was 19.6 µM (inactive), the GI50 (OVCAR-4) was 18.6 µM (inactive) and the GI50 (OVCAR-5) was 83.9 µM (inactive). For the same compound, the GI50 (PC-3) was 36.5 µM (inactive), the GI50 (RPMI-8226) was 26.1 µM (inactive) and the GI50 (RXF 393) was 26.1 µM (inactive). For the same compound, the GI50 (SF-268) was 31.8 µM (inactive), the GI50 (SF-295) was > 100 µM (inactive) and the GI50 (SF-539) was 29.8 µM (inactive). For the same compound, the GI50 (SK-MEL-28) was 44.2 µM (inactive), the GI50 (SK-MEL-2) was > 100 µM (inactive) and the GI50 (SK-MEL-5) was 30.4 µM (inactive). For the same compound, the GI50 (SK-OV-3) was > 100 µM (inactive), the GI50 (SN12C) was 21.7 µM (inactive) and the GI50 (SNB-19) was > 100 µM (inactive). For the same compound, the GI50 (SR) was 48.3 µM (inactive), the GI50 (SW-620) was 26.8 µM (inactive) and the GI50 (T47D) was 18.3 µM (inactive). For the same compound, the GI50 (TK-10) was 57.1 µM (inactive), the GI50 (U-251) was > 100 µM (inactive) and the GI50 (UACC-257) was > 100 µM (inactive). For the same compound, the GI50 (UACC-62) was 30.9 µM (inactive) and the GI50 (UO-31) was 31.9 µM (inactive).
